Measured values from PubChem BioAssay AID256 (DTP/NCI, 2004).
Values joined by “and” are separate entries in the source; they are usually repeats but may differ in a detail not shown here. Equal entries are not always repeated. Inconclusive results and toxic doses are left out.

Tested on: CD2F1 mice, L1210 leukemia ip, survival T/C
Assay: NCI In Vivo Anticancer Drug Screen. Data for tumor model L1210 Leukemia (intraperitoneal) in CD2F1 (CDF1) mice
Conditions: higher = longer survival
Method in brief: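 Antitumor effect is scored in animals hosting a serially transplanted tumor. Values compare compound-dosed animals against vehicle-only controls as a simple quotient.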

O=c1[nH]c(=O)n(C2OC3COC2C3O)cc1F (configuration not stated)
T/C (endpoint: median survival time, dose: 12.5 mg/kg/injection, schedule: Q01DX005 (ip), vehicle: saline with Tween-80): 101 % of control | T/C (endpoint: median survival time, dose: 25.0 mg/kg/injection, schedule: Q01DX005 (ip), vehicle: saline with Tween-80): 106 % of control | T/C (endpoint: median survival time, dose: 50.0 mg/kg/injection, schedule: Q01DX005 (ip), vehicle: saline with Tween-80): 102 % of control | T/C (endpoint: median survival time, dose: 100.0 mg/kg/injection, schedule: Q01DX005 (ip), vehicle: saline with Tween-80): 97 % of control | T/C (endpoint: median survival time, dose: 200.0 mg/kg/injection, schedule: Q01DX005 (ip), vehicle: saline with Tween-80): 96 % of control

COc1ccc(NC(=O)Nc2ccc(Cl)cc2OC)cc1
T/C (endpoint: mean survival time, dose: 200.0 mg/kg/injection, schedule: Q04DX002 (ip), vehicle: saline with Tween-80): 93 % of control | T/C (endpoint: mean survival time, dose: 400.0 mg/kg/injection, schedule: Q04DX002 (ip), vehicle: saline with Tween-80): 90 % of control

CCOC(=O)Nc1cc(NCCc2ccccc2)c([N+](=O)[O-])c(N)n1
T/C (endpoint: mean survival time, dose: 100.0 mg/kg/injection, schedule: Q01DX001 (ip), vehicle: Klucel (hydroxypropylcellulose) (HPC)): 91 % of control | T/C (endpoint: mean survival time, dose: 200.0 mg/kg/injection, schedule: Q01DX001 (ip), vehicle: Klucel (hydroxypropylcellulose) (HPC)): 94 % of control | T/C (endpoint: mean survival time, dose: 400.0 mg/kg/injection, schedule: Q01DX001 (ip), vehicle: Klucel (hydroxypropylcellulose) (HPC)): 86 % of control

N/C(=N\OC(=O)Nc1ccc(CSc2ccc(Cl)cc2)o1)c1ccccn1
T/C (endpoint: median survival time, dose: 12.5 mg/kg/injection, schedule: Q01DX009 (ip), vehicle: Klucel (hydroxypropylcellulose) (HPC)): 98 % of control | T/C (endpoint: median survival time, dose: 25.0 mg/kg/injection, schedule: Q01DX009 (ip), vehicle: Klucel (hydroxypropylcellulose) (HPC)): 103 % of control | T/C (endpoint: median survival time, dose: 50.0 mg/kg/injection, schedule: Q01DX009 (ip), vehicle: Klucel (hydroxypropylcellulose) (HPC)): 102 % of control | T/C (endpoint: median survival time, dose: 100.0 mg/kg/injection, schedule: Q01DX009 (ip), vehicle: Klucel (hydroxypropylcellulose) (HPC)): 102 % of control | T/C (endpoint: median survival time, dose: 200.0 mg/kg/injection, schedule: Q01DX009 (ip), vehicle: Klucel (hydroxypropylcellulose) (HPC)): 95 % of control

COc1ccc2ccccc2c1C1NC(=O)c2ccccc2N1 (configuration not stated)
T/C (endpoint: mean survival time, dose: 12.5 mg/kg/injection, schedule: Q01DX009 (ip), vehicle: Klucel (hydroxypropylcellulose) (HPC)): 95 % of control and 102 % of control | T/C (endpoint: mean survival time, dose: 25.0 mg/kg/injection, schedule: Q01DX009 (ip), vehicle: Klucel (hydroxypropylcellulose) (HPC)): 101 % of control and 102 % of control | T/C (endpoint: mean survival time, dose: 50.0 mg/kg/injection, schedule: Q01DX009 (ip), vehicle: Klucel (hydroxypropylcellulose) (HPC)): 105 % of control and 107 % of control | T/C (endpoint: mean survival time, dose: 100.0 mg/kg/injection, schedule: Q01DX009 (ip), vehicle: Klucel (hydroxypropylcellulose) (HPC)): 101 % of control and 104 % of control | T/C (endpoint: mean survival time, dose: 200.0 mg/kg/injection, schedule: Q01DX009 (ip), vehicle: Klucel (hydroxypropylcellulose) (HPC)): 104 % of control and 105 % of control | T/C (endpoint: mean survival time, dose: 400.0 mg/kg/injection, schedule: Q01DX009 (ip), vehicle: Klucel (hydroxypropylcellulose) (HPC)): 119 % of control and 96 % of control

O=[N+]([O-])c1ccc(/C=C/C=C/c2ccccc2)cc1
T/C (endpoint: mean survival time, dose: 100.0 mg/kg/injection, schedule: Q04DX003 (ip), vehicle: saline with Tween-80): 101 % of control | T/C (endpoint: mean survival time, dose: 200.0 mg/kg/injection, schedule: Q04DX003 (ip), vehicle: saline with Tween-80): 98 % of control | T/C (endpoint: mean survival time, dose: 400.0 mg/kg/injection, schedule: Q04DX003 (ip), vehicle: saline with Tween-80): 95 % of control

NC1CCCCC1N.O=S(=O)([O-])CCCNC1CCCCC1.O=S(=O)([O-])CCCNC1CCCCC1.[Pt+4]
T/C (endpoint: median survival time, dose: 0.78 mg/kg/injection, schedule: Q04DX003 (ip), vehicle: saline): 168 % of control | T/C (endpoint: median survival time, dose: 1.56 mg/kg/injection, schedule: Q04DX003 (ip), vehicle: saline): 256 % of control | T/C (endpoint: median survival time, dose: 3.12 mg/kg/injection, schedule: Q04DX003 (ip), vehicle: saline): 361 % of control and 365 % of control | T/C (endpoint: median survival time, dose: 6.25 mg/kg/injection, schedule: Q04DX003 (ip), vehicle: saline): 169 % of control and 240 % of control

CC(=O)Nc1nc(Br)c2ccccc2c1-c1ccc(N(CCOS(=O)(=O)c2ccc(C)cc2)CCOS(=O)(=O)c2ccc(C)cc2)cc1
T/C (endpoint: mean survival time, dose: 12.5 mg/kg/injection, schedule: Q04DX003 (ip), vehicle: DMSO): 98 % of control | T/C (endpoint: mean survival time, dose: 25.0 mg/kg/injection, schedule: Q04DX003 (ip), vehicle: DMSO): 102 % of control | T/C (endpoint: mean survival time, dose: 50.0 mg/kg/injection, schedule: Q04DX003 (ip), vehicle: DMSO): 102 % of control | T/C (endpoint: mean survival time, dose: 100.0 mg/kg/injection, schedule: Q04DX003 (ip), vehicle: DMSO): 105 % of control

CCOC(=O)Nc1cc(F)ccc1F
T/C (endpoint: mean survival time, dose: 100.0 mg/kg/injection, schedule: Q01DX009 (ip), vehicle: other): 103 % of control | T/C (endpoint: mean survival time, dose: 200.0 mg/kg/injection, schedule: Q01DX009 (ip), vehicle: other): 94 % of control | T/C (endpoint: mean survival time, dose: 400.0 mg/kg/injection, schedule: Q01DX009 (ip), vehicle: other): 95 % of control

COC1=C2CCCC2=[N+]2CCCCC2C1 (configuration not stated)
T/C (endpoint: mean survival time, dose: 100.0 mg/kg/injection, schedule: Q04DX003 (ip), vehicle: saline): 96 % of control | T/C (endpoint: mean survival time, dose: 200.0 mg/kg/injection, schedule: Q04DX003 (ip), vehicle: saline): 96 % of control
